From US20190233287A1, “Methods To Prepare Haloamines Using At Least One Solid Reactant And Products Made Therefrom” (Buckman Laboratories International, Inc., priority 2018, published 2019)

Experiments:
[1] = weak acid; cited from earlier work
[2] = Chlorine content, MCA content and pH of solutions, measured at once and again after 1 hour; assay type: physicochemical; details: 0.1 wt % Dantochlor aqueous solution, pH 11.2, measured instantly
Experimental: In this experiment the chlorine-releaser was granular Dantochlor (DCDMH), and the ammonium source was BUSPERSE 2454 (already in the form of an aqueous ammonium sulfate). A one liter aqueous solution containing 0.1 wt % Dantochlor was prepared. This aqueous solution was adjusted to a pH of 11.2 using NaOH (50%).
A molar equivalent amount of BUSPERSE 2454 was ±0.7 ml for a one liter solution. A 30% molar overdosage was used and thus, 1 ml of BUSPERSE 2454 was added to the aqueous solution of Dantochlor.

[3] = Chlorate ion concentration by Ion Chromatography; assay type: physicochemical; details: aqueous solutions of the Dantochlor product (1.5-72 ppm); detection limit 0.5 ppm
Experimental: The chlorate ion concentration was also analyzed for various aqueous solutions of the Dantochlor product (1.5-72 ppm); chlorate ion was not detected above the method's detection limit of 0.5 ppm.

SMILES	pKa [1]	Free Cl2 [2] [ppm Cl2]	Total Cl2 [2] [ppm Cl2]	chlorate ion concentration [3] [ppm]
OCl [HOCl, hypochlorous acid]	7.5			
CC1(C)C(=O)N(Cl)C(=O)N1Cl [Dantochlor, dichlorodimethylhydantoin]		274	600	< 0.5
